# Values of other authors in publication PMC3411462, “Long-acting κ opioid antagonists nor-BNI, GNTI and JDTic: pharmacokinetics in mice and lipophilicity” (BMC Pharmacology, 2012).
# Like-named read-outs stand apart in the source and are kept apart here. Marks after values point to notes of the source that are not given here.
# Tests used:
# [1] = set-up: method as in earlier work; details: preliminary reports; cited from earlier work
# μ opioid receptor = system: μ opioid receptor; set-up: method as in PMID 1326932; details: after subcutaneous administration; cited from earlier work
# [2] = cited from earlier work
# [3] = set-up: method as in PMID 17049114; details: mice, i.p.; cited from earlier work
# κ opioid receptor = system: κ opioid receptor; set-up: method as in PMID 15464069; details: intragastric administration; cited from earlier work
compound,measurement,setting,value
"Oc1ccc2c3c1O[C@H]1c4[nH]c5c(c4C[C@@]4(O)[C@@H](C2)N(CC2CC2)CC[C@]314)C[C@@]1(O)[C@H]2Cc3ccc(O)c4c3[C@@]1(CCN2CC1CC1)[C@H]5O4 [nor-BNI, norbinaltorphimine]",Detection in mouse brain after administration,[1],up to 21 days
same,"μ antagonism, duration",μ opioid receptor,approximately 4 hours
same,"μ antagonism, time of peak",μ opioid receptor,approximately 30 minutes
"N=C(N)Nc1ccc2[nH]c3c(c2c1)C[C@@]1(O)[C@H]2Cc4ccc(O)c5c4[C@@]1(CCN2CC1CC1)[C@H]3O5 [GNTI, 5’-guanidinonaltrindole]",Water solubility,"[2]; 25 °C, ref Tocris product information sheet",>100^a mmol L^-1
same,Water solubility,[2]; ref Tocris product information sheet (Table 1),at least 100 mM
same,"Sedation, duration",[3],less than 3 hours
same,"Sedation, time to maximum",[3],≤ 20 min
"CC(C)[C@@H](CN1CC[C@@](C)(c2cccc(O)c2)[C@@H](C)C1)NC(=O)[C@H]1Cc2ccc(O)cc2CN1 [JDTic, (3R)-7-Hydroxy-N-((1S)-1-{[(3R,4R)-4-(3-hydroxyphenyl)-3,4-dimethyl-1-piperidinyl]methyl}-2-methylpropyl)-1,2,3,4-tetrahydro-3-isoquinolinecarboxamide]",Delay in onset of κ antagonism,κ opioid receptor,greater than 6 hours
